Data published in patent US11390609B2, “Rho-associated protein kinase inhibitor, pharmaceutical composition comprising same, and preparation method and use thereof” (BEIJING TIDE PHARMACEUTICAL CO., LTD., priority 2017, dated 2022).

Columns and labels:
ROCK2 = ROCK2 (Homo sapiens, UniProt O75116); experiment: ROCK2 kinase IC50 assay (CISBIO HTRF KinEASE-STK S2 kit); type: biochemical; conditions: incubated at room temperature for 2 hours
Experimental: The kinase IC50 was determined by a commercialized CISBIO kinase detection kit, HTRF KinEASE-STK S2 kit (62ST2PEC). ROCK2 (01-119) employed in the reaction was purchased from Carna Biosciences.
Before the assay, the following working solutions as needed were formulated with corresponding reagents according to the instruction of the kinase detection kit: 1×kinase buffer, 5×STK-52 substrate working solution (1.5 μM) and 5×ATP working solution (1.5 μM), 5×ROCK2 kinase working solution, 4×Streptavidin-XL665 working solution, and 4×STK-Ab-Cryptate 2 detection solution. Then the assay was performed according to the following procedure.
A solution of a compound at a concentration of 10000 nM was prepared with the 1×kinase buffer containing 2.5% DMSO. Gradient dilution of the solution of the compound was performed with the kinase buffer containing DMSO, so as to obtain solutions of a test compound at 9 different concentrations. In addition to wells of test compounds, a positive well (containing all the reagents except the compound) and a negative well (containing all the reagents except the test compound and kinase) were set. Except for the control wells (positive and negative wells), a solution of a test compound (4 μL) was added to each of the reaction wells, and a solution of 2.5% DMSO was added to the control wells. Then the substrate ([…], 2 μL. 5×STK-S2 substrate working solution) was added to each of the reaction wells. The 5×ROCK2 kinase working solution (2 μL, containing 1.4 ng ROCK2 kinase) was added to each of the reaction wells except for the negative well, the volume of which was made up with the 1×kinase buffer (2 μL). The 5×ATP working solution (2 μL) was added to each of the reaction wells, and the mixtures were incubated at room temperature for 2 hours. After the kinase reaction was complete, the 4×Streptavidin-XL665 working solution was added to each of the reaction wells, the solutions were mixed, followed by immediate addition of the 4×STK-Ab-Cryptate 2 detection solution (5 μL), and the mixtures were incubated at room temperature for 1 hour. The fluorescence signal was read on ENVISION (Perkinelmer) (excitation wavelength: 320 nm, and emission wavelength: 665 nm and 615 nm). The inhibitory rate in each well was calculated based on the fluorescence intensity value: ER (Emission Ratio)=(fluorescence intensity at 665 nm/fluorescence intensity at 615 nm); inhibitory rate=(ERpositive−ERtest compound)/(ERpositive−ERnegative)*100%. Curves were plotted and fitted to obtain the median inhibitory concentration (IC50) of each teat compound with the PRISM 5.0 software.

ROCK1 = ROCK1 (Homo sapiens (Human), UniProt Q13464); experiment: ROCK1 kinase IC50 assay (biological test method similar to the ROCK2 assay); type: biochemical
In short: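 Compound dilution series (9 concentrations, top solution 10000 nM, DMSO-containing buffer) incubated 2 h at room temperature with kinase, STK-S2 substrate and ATP (5× working solutions of 1.5 µM each). Phosphorylation detected by HTRF (665/615 nm emission ratio) after 1 h; inhibition relative to full-reaction and kinase-free wells, fitted for IC50.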

Sequence of ROCK1 (Q13464 whole entry, species assumed): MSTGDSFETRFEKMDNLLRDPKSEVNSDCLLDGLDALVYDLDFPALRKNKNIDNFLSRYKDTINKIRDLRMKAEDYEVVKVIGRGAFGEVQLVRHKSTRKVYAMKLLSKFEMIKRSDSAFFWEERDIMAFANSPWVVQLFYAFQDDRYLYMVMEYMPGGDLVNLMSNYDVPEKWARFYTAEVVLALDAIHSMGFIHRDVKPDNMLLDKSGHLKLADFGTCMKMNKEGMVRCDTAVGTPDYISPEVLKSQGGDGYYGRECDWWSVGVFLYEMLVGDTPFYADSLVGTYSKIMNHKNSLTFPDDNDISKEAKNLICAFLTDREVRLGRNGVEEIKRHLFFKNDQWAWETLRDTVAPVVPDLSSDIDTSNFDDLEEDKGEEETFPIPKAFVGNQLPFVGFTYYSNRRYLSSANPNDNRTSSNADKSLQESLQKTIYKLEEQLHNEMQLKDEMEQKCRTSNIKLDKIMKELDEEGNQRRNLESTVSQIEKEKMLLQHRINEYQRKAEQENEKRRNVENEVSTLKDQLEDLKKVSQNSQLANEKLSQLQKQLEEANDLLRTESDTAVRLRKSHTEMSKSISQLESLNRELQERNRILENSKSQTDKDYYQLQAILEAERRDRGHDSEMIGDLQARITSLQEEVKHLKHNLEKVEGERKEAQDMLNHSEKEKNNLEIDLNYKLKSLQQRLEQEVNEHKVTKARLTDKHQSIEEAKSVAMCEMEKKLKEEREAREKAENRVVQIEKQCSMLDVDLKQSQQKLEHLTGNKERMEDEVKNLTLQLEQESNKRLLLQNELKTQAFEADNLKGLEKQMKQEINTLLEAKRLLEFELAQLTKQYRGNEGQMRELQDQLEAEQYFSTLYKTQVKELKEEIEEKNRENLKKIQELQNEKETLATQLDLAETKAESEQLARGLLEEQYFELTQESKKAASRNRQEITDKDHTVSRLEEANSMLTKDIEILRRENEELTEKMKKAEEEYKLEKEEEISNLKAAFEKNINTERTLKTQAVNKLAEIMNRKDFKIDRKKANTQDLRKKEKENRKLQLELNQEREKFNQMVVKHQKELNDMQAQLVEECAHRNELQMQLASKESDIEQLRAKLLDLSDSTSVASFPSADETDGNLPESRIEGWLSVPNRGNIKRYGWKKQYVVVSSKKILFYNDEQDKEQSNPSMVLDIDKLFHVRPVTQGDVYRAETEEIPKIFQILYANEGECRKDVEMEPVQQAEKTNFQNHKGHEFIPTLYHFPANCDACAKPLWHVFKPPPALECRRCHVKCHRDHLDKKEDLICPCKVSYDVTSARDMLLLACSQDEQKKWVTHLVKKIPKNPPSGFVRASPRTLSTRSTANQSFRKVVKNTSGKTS

Molecule: 5-(4-((4-(1H-pyrazol-4- yl)phenyl)amino)pyrimidin- 2-yl)-N,N-diethyl-1H- indole-2-carboxamide [TDI01408]
- IC50 (ROCK2): 400 nM
- IC50 (ROCK1): 5630 nM

Molecule: CC(C)(C)OC(=O)n1ncc2cc(NC(=O)c3cc4ccc(-c5nccc(Nc6ccc7[nH]ncc7c6)n5)cc4[nH]3)ccc21 [TDI01248, tert-butyl 5-(6-(4-((1H-indazol-5-yl)amino)-pyrimidin-2-yl)-1H-indole-2-carboxamido)-1H-indazole-1-carboxylate]
- IC50 (ROCK2): 500 nM

Molecule: CN1CCN(C2CCN(C(=O)c3cc4ccc(-c5nccc(Nc6ccc7[nH]ncc7c6)n5)cc4[nH]3)CC2)CC1 [TDI01319, (6-(4-((1H-indazol-5-yl)amino)-pyrimidin-2-yl)-1H-indol-2-yl)(4-(4-methyl-piperazin-1-yl)piperidin-1-yl)methanone]
- IC50 (ROCK2): 258 nM
- IC50 (ROCK1): > 10000 nM

Molecule: CN(C)C(=O)c1cc2ccc(-c3nccc(Nc4ccc5[nH]ncc5c4)n3)cc2[nH]1 [TDI01353, 6-(4-((1H-indazol-5-yl)amino)-pyrimidin-2-yl)-N,N-dimethyl-1H-indole-2-carboxamide]
- IC50 (ROCK2): 307 nM

Molecule: O=C(c1cc2ccc(-c3nccc(Nc4ccc5[nH]ncc5c4)n3)cc2[nH]1)N1CCC2(CCNCC2)CC1 [TDI01360, (6-(4-((1H-indazol-5-yl)amino)-pyrimidin-2-yl)-1H-indol-2-yl)(3.9-diazaspiro[5.5]undecan-3-yl)methanone]
- IC50 (ROCK2): 26 nM
- IC50 (ROCK1): 1470 nM

Molecule: O=C(c1cc2ccc(-c3nccc(Nc4ccc(-c5cn[nH]c5)cc4)n3)cc2[nH]1)N1CC2(CNC2)C1 [TDI01369, (6-(4-((4-(1H-pyrazol-4-yl)phenyl)-amino)-pyrimidin-2-yl)-1H-indol-2-yl)(2,6-diazaspiro[3.3]heptan-2-yl)methanone]
- IC50 (ROCK2): 266 nM
- IC50 (ROCK1): 6790 nM

Molecule: O=C(Nc1ccncc1Cl)c1cc2ccc(-c3nccc(Nc4ccc5[nH]ncc5c4)n3)cc2s1 [TDI01372, 6-(4-((1H-indazol-5-yl)amino)-pyrimidin-2-yl)-N-(3-chloropyridin-4-yl)benzo[b]-thiophene-2-carboxamide]
- IC50 (ROCK2): 123 nM
- IC50 (ROCK1): > 10000 nM

Molecule: COC(=O)C(Cc1c[nH]cn1)NC(=O)c1cc2ccc(-c3nccc(Nc4ccc5[nH]ncc5c4)n3)cc2[nH]1 (stereo not drawn) [TDI01385, methyl (6-(4-((1H-indazol-5-yl)amino)-pyrimidin-2-yl)-1H-indole-2-carbonyl)-histidinate]
- IC50 (ROCK2): 107 nM

Molecule: CN(C)C(=O)c1cc2ccc(-c3nc(Nc4ccc5[nH]ncc5c4)c4sccc4n3)cc2[nH]1 [TDI01406, 6-(4-((1H-indazol-5-yl)amino)-thieno[3,2-d]pyrimidin-2-yl)-N,N-dimethyl-1H-indole-2-carboxamide]
- IC50 (ROCK2): 285 nM

Molecule: O=C(C1CC(F)(F)C1)N1CCc2ccc(-c3nccc(Nc4ccc5[nH]ncc5c4)n3)cc2C1 [TDI01682, (7-(4-((1H-indazol-5-yl)amino)pyrimidin-2-yl)-3,4-dihydroisoquinolin-2(1H)-yl)(3,3-difluorocyclobutyl)methanone]
- IC50 (ROCK2): 360 nM

Molecule: Cn1c(-n2ccnc2)cc2ccc(-c3nccc(Nc4ccc(-c5cn[nH]c5)c(F)c4)n3)cc21 [TDI01684, 2-(2-(1H-imidazol-1-yl)-1-methyl-1H-indol-6-yl)-N-(3-fluoro-4-(1H-pyrazol-4-yl)phenyl)pyrimidin-4-amine]
- IC50 (ROCK2): 171 nM

Molecule: COc1cc(Nc2ccc3[nH]ncc3c2)nc(-c2ccc3cc(C(=O)Nc4ccnnc4)[nH]c3c2)n1 [TDI01801, 6-(4-((1H-indazol-5-yl)amino)-6-methoxy-pyrimidin-2-yl)-N-(pyridazin-4-yl)-1H-indole-2-carboxamide]
- IC50 (ROCK2): 68 nM

Molecule: O=C(NC1CCN(c2ccncc2)CC1)c1cc2ccc(-c3nccc(Nc4ccc5[nH]ncc5c4)n3)cc2[nH]1 [TDI01814, 6-(4-((1H-indazol-5-yl)amino)-pyrimidin-2-yl)-N-(1-(pyridin-4-yl)piperidin-4-yl)-1H-indole-2-carboxamide]
- IC50 (ROCK2): 18 nM

Molecule: N#Cc1cnccc1NC(=O)c1cc2ccc(-c3nccc(Nc4ccc(-c5cn[nH]c5)cc4)n3)cc2[nH]1 [TDI01829B, 6-(4-((4-(1H-pyrazol-4-yl)phenyl)amino)pyrimidin-2-yl)-N-(3-cyanopyridin-4-yl)-1H-indole-2-carboxamide]
- IC50 (ROCK1): > 10000 nM

Molecule: O=C(Nc1ccncc1I)c1cc2ccc(-c3nccc(Nc4ccc(-c5cn[nH]c5)cc4)n3)cc2[nH]1 [TDI01829C, 6-(4-((4-(1H-pyrazol-4-yl)phenyl)-amino)-pyrimidin-2-yl)-N-(3-iodopyridin-4-yl)-1H-indole-2-carboxamide]
- IC50 (ROCK1): > 10000 nM

Molecule: O=C(c1cc2ccc(-c3nccc(Nc4ccc(-c5cn[nH]c5)c(F)c4)n3)cc2[nH]1)N1CC(F)(F)C1 [TDI01842B, (3,3-difluoroazetidin-1-yl)(6-(4-((3-fluoro-4-(1H-pyrazol-4-yl)phenyl)ami-no)pyrimidn-2-yl)-1H-indol-2-yl)methanone]
- IC50 (ROCK1): 2770 nM

Molecule: O=C(NC1CCN(c2ccncc2Cl)CC1)c1cc2ccc(-c3nccc(Nc4ccc(-c5cn[nH]c5)cc4)n3)cc2[nH]1 [TDI01847B, 6-(4-((4-(1H-pyrazol-4-yl)phenyl)-amino)-pyrimidin-2-yl)-N-(1-(3-chloropyridin-4-yl)piperidin-4-yl)-1H-indole-2-carboxamide]
- IC50 (ROCK1): 3380 nM

Molecule: C[C@@H](NC(=O)c1cc2ccc(-c3nccc(Nc4ccc5[nH]ncc5c4)n3)cc2[nH]1)c1ccncc1 [TDI01849, (R)-6-(4-((1H-indazol-5-yl)amino)-pyrimpidin-2-yl)-N-(1-(pyridin-4-yl)ethyl)-1H-indole-2-carboxamide]
- IC50 (ROCK2): 132 nM

Molecule: O=C(c1cc2ccc(-c3nccc(Nc4ccc(-c5cn[nH]c5)cc4)n3)cc2[nH]1)N1CCO[C@@H](CO)C1 [TDI01852]
- IC50 (ROCK1): > 10000 nM

Molecule: O=C(c1cc2ccc(-c3nccc(Nc4ccc(-c5cn[nH]c5)cc4)n3)cc2[nH]1)N1CCOC[C@H]1CO [TDI01853, (R)-(6-(4-((4-(1H-pyrazol-4-yl)phenyl)-amino)-pyrimidin-2-yl)-1H-indol-2-yl)(3-(hydroxy-methyl)-morpholino)-methanone]
- IC50 (ROCK1): 2830 nM

Molecule: C[C@H](CN)NC(=O)c1cc2ccc(-c3nccc(Nc4ccc(-c5cn[nH]c5)cc4)n3)cc2[nH]1 [TDI01855, (R)-6-(4-((4-(1H-pyrazol-4-yl)phenyl)-amino)-pyrimidin-2-yl)-N-(1-aminopropan-2-yl)-1H-indole-2-carboxamide]
- IC50 (ROCK1): 5420 nM

Molecule: C[C@@H](CN)NC(=O)c1cc2ccc(-c3nccc(Nc4ccc(-c5cn[nH]c5)cc4)n3)cc2[nH]1 [TDI01856, (S)-6-(4-((4-(1H-pyrazol-4-yl)phenyl)-amino)-pyrimidin-2-yl)-N-(1-aminopropan-2-yl)-1H-indole-2-carboxamide]
- IC50 (ROCK1): 2040 nM

Molecule: CC(C)NC(=O)c1cc2ccc(-c3nc(Nc4ccc(-c5cn[nH]c5)cc4)cc(OCCN(C)C)n3)cc2[nH]1 [TDI01865, 6-(4-((4-(1H-pyrazol-4-yl)phenyl)amino)-6-(2-(dimethylami-no)ethoxy)pyrimidin-2-yl)-N-isopropyl-1H-indole-2-carboxamide]
- IC50 (ROCK2): 400 nM

Molecule: O=C(NC1CCCC(N2CCOCC2)C1)c1cc2ccc(-c3nccc(Nc4ccc(-c5cn[nH]c5)cc4)n3)cc2[nH]1 (stereo not drawn) [TDI01878, 6-(4-((4-(1H-pyrazol-4-yl)phenyl)-amino)-pyrimidin-2-yl)-N-(3-morpholino-cyclohexyl)-1H-indole-2-carboxamide]
- IC50 (ROCK2): 9 nM

Molecule: Cc1cc2ccc(-c3nccc(Nc4ccc5[nH]ncc5c4)n3)cc2[nH]1 [TDI01901, N-(2-(2-methyl-1H-indol-6-yl)pyrimidin-4-yl)-1H-indazol-5-amine]
- IC50 (ROCK2): 387 nM

Molecule: Fc1cc(Nc2ccnc(-c3ccc4cc(-c5nccs5)[nH]c4c3)n2)ccc1-c1cn[nH]c1 [TDI01908, N-(3-fluoro-4-(1H-pyrazol-4-yl)phenyl)-2-(2-(thiazol-2-yl)-1H-indol-6-yl)pyrimidin-4-amine]
- IC50 (ROCK1): > 10000 nM

Molecule: Cn1c(C(=O)N2CC(F)(F)C2)cc2ccc(-c3ncc(F)c(Nc4ccc(-c5cn[nH]c5)cc4)n3)cc21 [TDI01932]
- IC50 (ROCK1): > 10000 nM

Molecule: O=C(C1CC(F)(F)C1)N1Cc2ccc(-c3ncc(F)c(Nc4ccc(-c5cn[nH]c5)cc4)n3)cc2C1 [TDI01978, (5-(4-((4-(1H-pyrazol-4-yl)phenyl)amino)-5-fluoropyrimidin-2-yl)isoindolin-2-yl)(3,3-difluorocyclobutyl) methanone]
- IC50 (ROCK1): > 10000 nM
